# Test results published in patent US5073566A, “Angiotensin II antagonist 1,3-imidazoles and use thereas” (Eli Lilly and Company, priority 1989, dated 1991).
# Where two headings read alike, the source gives them in different places.
# Tests used:
# angiotensin II receptor = test: Adrenal Glomerulosa Test System: I125-angiotensin II binding to adrenal membranes; details: percent inhibition of I125 angiotensin binding at 10^-5 M of antagonist; rat adrenal membranes; 0.1 nM I125-angiotensin II
# Procedure: The ability for compounds of Formula I to block angiotensin II receptor binding was determined using the adrenal glomerulosa assay.
# Binding of I^125 -angiotensin II to adrenal membranes was routinely carried out in 96-well filtration plates. Adrenal membranes were prepared from the capsular portion (glomerulosal layer attached) of rat adrenal glands by differential centrifugation. Briefly, capsules were homogenized in a solution containing sucrose, 250 mM; MgCl2, 1 mM; and tris, 5 mM at pH 7.5 and 4° C. using a polytron at setting 5 for 20 seconds. The homogenate was stirred, gently, for 15 minutes at 4° C. and then centrifuged 10 minutes, at 1000×g, 4° C. The supernatant was centrifuged 30 minutes, at 30,000 ×g, 4° C. and the resulting pellet resuspended in 50 mM tris. Membrane preparations were stored in aliquots at -70° C. until used. Binding of I^125 -angiotensin II to adrenal membranes was performed at room temperature for 90 minutes in 96-well plates containing a hydrophilic polyvinylidene fluoride membrane (0.45 μm, millipore-GV multiscreen). Each 250 μl incubate contained the following (final concentration): tris, 50 mM; NaCl, 120 mM; MgCl2, 5 mM; dithiothrietol 1 mM; bovine serum albumin, 0.05%; I^125 -angiotensin II, 0.1 nM; and adrenal membrane protein, 8-15 μg. Antagonists were added in concentrations from 10 nM to 100 μM. Non-specific binding was measured in the presence of 0.1 μM Sar1, Ile8 angiotensin II. Binding was terminated by vacuum filtration. Receptor-ligand complex trapped on filters was washed 3 times with 300 μl ice-cold wash solution (tris, 50 mM; NaCl, 120 mM; MgCl2, 5 mM; dithiothrietol, 1 mM). Filter discs were dried, punched out and counted in a gamma counter at 52% efficiency. Specific binding represented 96% of total binding (approximately 150 fmol angiotensin II/mg protein). Data are expressed as the percent inhibition of I^125 angiotensin binding at 10^-5 M of antagonist.
# [1] = biological target: T1, angiotensin-induced vasoconstriction (rabbit aorta) (Oryctolagus cuniculus, UniProt P34976); test: Rabbit Aorta Test System: antagonism of angiotensin II-induced contraction of aortic rings; assay type: cell-based, New Zealand white rabbits
# T1 construct: the thoracic aortas were removed and cleaned of excess fat and connective tissue; from tissue; host or cells: thoracic aorta rings of New Zealand white rabbits
# T1 sequence (P34976 1-359): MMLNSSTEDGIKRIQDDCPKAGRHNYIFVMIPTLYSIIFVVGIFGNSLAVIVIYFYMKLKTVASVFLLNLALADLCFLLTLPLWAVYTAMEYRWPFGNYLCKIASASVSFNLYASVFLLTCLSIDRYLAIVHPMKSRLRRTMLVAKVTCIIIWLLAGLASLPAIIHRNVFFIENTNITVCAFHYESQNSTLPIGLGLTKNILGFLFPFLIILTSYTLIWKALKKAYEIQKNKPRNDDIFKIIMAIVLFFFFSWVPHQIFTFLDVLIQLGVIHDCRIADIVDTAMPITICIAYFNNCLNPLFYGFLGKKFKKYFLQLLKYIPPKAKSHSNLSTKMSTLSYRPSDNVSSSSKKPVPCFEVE
# Procedure: The ability to antagonize angiotensin-induced vasoconstriction was evaluated in the rabbit aorta test system.
# New Zealand white rabbits (Hazelton, 2-3 kg) were sacrificed by cervical dislocation and the thoracic aortas were removed and cleaned of excess fat and connective tissue. Rings of tissue (3 mm wide) were mounted in 10 ml tissue baths between 2 L-shaped stainless steel hooks. The lower hook was attached to a stationary rod and the upper hook to a force displacement transducer (Grass model FT.03). The bath chambers were maintained at 37° C., aerated with 95% O2 /5% CO2, and contained physiological solution of the following composition (mM): NaCl, 117; glucose, 5.6; NaH2 PO4, 1.0; MgSO4, 0.7; KCl, 5.2; CaCl2, 1.8; NaHCO3, 26; and phentolamine HCl, 0.003.
# Rings were equilibrated for 1 hour with 2 g of tension. During the equilibration period, the tissues were washed by overflow every 15 minutes. Rings were then exposed to 10^-8 M angiotensin II (AII) and were allowed to contract until a steady state was reached. Tissues were then washed every 15 minutes for 1 hour. This was repeated every hour until the AII response stabilized. A cumulative concentration-response curve to AII (10^-10 to 10^-7 M) was then obtained. At the conclusion of the concentration-response curve, tissues were washed every 2 minutes until baseline tension was reached, then every 15 minutes for 30 minutes. Compounds were added in a volume of 10 μl DMSO and allowed to incubate for 30 minutes before repeating the concentration-response curve to AII. Contractions to AII were expressed as a percent of the maximum contraction obtained in the control curve (the first AII concentration-response curve). EC50 's (concentration that contracted the tissues to 1/2 the control maximum) for each curve were calculated using a 4 parameter logistics model (NonLin, SAS institute).
# [2] = pA2 = -log KB, KB = [molar concentration of antagonist]/[(EC50 AII with antagonist/EC50 AII without antagonist)-1], 30 min incubation, AII 10^-10 to 10^-7 M, read-out: Rabbit Aorta (pA2) (converted)
Adrenal Glomerulosa (% Inhibition of Binding) (angiotensin II receptor) [%],"Kb [1, 2] [µM]",SMILES,Kb [1] [µM]
61,12,"CCCCCCC(c1nnn[nH]1)n1cnc(C(=O)NC(c2ccccc2)c2ccccc2)c1 (centres unmarked) [Example 48, 1-[1-(Tetrazol-5-yl)heptyl]-N-(diphenylmethyl)-1H-imidazole-4-carboxamide]",–
9,40.7,"CCCCCCC(c1cccc(C(=O)NC(c2ccccc2)c2ccccc2)c1)c1nnn[nH]1 (centres unmarked) [Example 49, N-(Diphenylmethyl)-3-[1-(tetrazol-5-yl)-heptyl]benzamide]",–
42,0.851,"CCCCCCC(c1nn[nH]n1)n1cnc(NC(=O)c2ccccc2C(=O)O)c1 (centres unmarked) [Example 50, 2-[({1-[1-(Tetrazol-5-yl)heptyl]-1H-imidazol-4-yl}amino)carbonyl]benzoic acid hemihydrate]",–
80,2.69,"CCCCCCC(C(=O)O)n1cnc(NC(=O)C(c2ccccc2)c2ccccc2)c1.Cl (stereo not drawn) [Example 51, α-Hexyl-4-[(diphenylacetyl)amino]-1H-imidazole-1-acetic acid hydrochloride]",–
44,8.32,"CCCCCCC(C(=O)O)n1cnc(C(=O)NC(c2ccccc2)c2ccccc2)n1.Cl (stereo not drawn) [Example 52, α-Hexyl-3-{[(diphenylmethyl)amino]carbonyl}-1H-1,2,4-triazole-1-acetic acid hydrochloride]",–
42,6.03,"CCCCCCC(C(=O)O)n1ccc(C(=O)NC(c2ccccc2)c2ccccc2)c1 (stereo not drawn) [Example 53, 3-{[(Diphenylmethyl)amino]carbonyl}-α-hexyl-1H-pyrrole-1-acetic acid]",–
40,13.8,"CCCCCCC(C(=O)O)n1cc(C(=O)NC(c2ccccc2)c2ccccc2)cn1 (stereo not drawn) [Example 54, 4-{[(Diphenylmethyl)amino]carbonyl}-α-hexyl-1H-pyrazole-1-acetic acid]",–
13,1.26,"CCCCCC(C(=O)O)c1ccc(Oc2ccccc2C(=O)O)cc1 (stereo not drawn) [Example 55, α-Pentyl-4-(2-carboxyphenoxy)phenylacetic acid]",–
75,1.05,"CCCCCCC(C(=O)O)c1ccc(C(=O)c2ccccc2C(=O)O)cc1 (stereo not drawn) [Example 56, α-Hexyl-4-(2-carboxybenzoyl)benzeneacetic acid]",–
77,2.63,"CCCCCCC(C(=O)O)n1cnc(C(=O)NC2CCc3ccccc32)c1.Cl (stereo not drawn) [Example 57, 4-{[(2,3-Dihydro-1H-inden-1-yl)amino]-carbonyl}-α-hexyl-1H-imidazole-1-acetic acid hydrochloride]",–
69,4.27,"CCCCCCC(C(=O)O)n1cnc(C(=O)NC(c2ccccc2)c2ccccc2)c1.Cl (stereo not drawn) [Example 58, 4-{[(Diphenylmethyl)amino]carbonyl}-α-hexyl-1H-imidazole-1-aceticacid hydrochloride]",–
15,8.32,"CCCCCC(CO)n1cnc(NC(=O)c2ccccc2C(=O)O)c1 (centres unmarked) [Example 60, 2-[({1-[1-(Hydroxymethyl)hexyl]-1H-imidazol-4-yl}amino)carbonyl]benzoic acid]",–
35,1.26,"CCCCCCC(C(=O)O)n1cnc(NC(=O)c2ccccc2O)c1 (stereo not drawn) [Example 76, α-Hexyl-4-[(2-hydroxybenzoyl)amino]-1H-imidazole-1-acetic acid]",–
36,5.5,"CCCCCCC(C(=O)O)n1cnc(NC(=O)c2c(O)ccc3ccccc23)c1 (stereo not drawn) [Example 77, α-Hexyl-4-{[(2-hydroxy-1-naphthalenyl)-carbonyl]amino}imidazole-1-acetic acid]",–
21,7.94,"CCCCCCC(C(=O)O)n1cnc(NC(=O)c2cccc(O)c2)c1 (stereo not drawn) [Example 78, α-Hexyl-4-[(3-hydroxybenzoyl)amino]-1H-imidazole-1-acetic acid hemihydrate]",–
18,11,"CCCCCCC(C(=O)O)n1cnc(NC(=O)c2ccc(O)c(O)c2)c1 (stereo not drawn) [Example 79, α-Hexyl-4-[(3,4-dihydroxybenzoyl)amino]-1H-imidazole-1-acetic acid (1.75 hydrate)]",–
53,3.89,"CCCCCCC(C(=O)O)n1cnc(C(=O)Nc2ccccc2CO)c1.Cl (stereo not drawn) [Example 83, α-Hexyl-4-({[2-(hydroxymethyl)phenyl]-amino}carbonyl)-1H-imidazole-1-acetic acid hydrochloride]",–
77,2.29,"CCCCCCC(C(=O)O)n1cnc(C(=O)Nc2ccccc2CCCCO)c1.Cl (stereo not drawn) [Example 84, α-Hexyl-4-({[2-(4-hydroxybutyl)phenyl]-amino}carbonyl)-1H-imidazole-1-acetic acid hydrochloride]",–
0,15.8,"CCCCCCC(C(=O)O)n1cnc(C(=O)Nc2cccc(CO)c2)c1.Cl (stereo not drawn) [Example 85, α-Hexyl-4-({[3-(hydroxymethyl)phenyl]-amino}carbonyl)-1H-imidazole-1-acetic acid hydrochloride]",–
57,3.24,"CCCCCCC(C(=O)O)n1cnc(C(=O)Nc2ccccc2CCO)c1.Cl (stereo not drawn) [Example 86, α-Hexyl-4-({[2-(2-hydroxyethyl)phenyl]-amino}carbonyl)-1H-imidazole-1-acetic acid hydrochloride]",–
7,23.4,"CCCCCCC(C(=O)O)n1cnc(C(=O)Nc2ccc(CCO)cc2)c1.Cl (stereo not drawn) [Example 87, α-Hexyl-4-({[4-(2-hydroxyethyl)phenyl]-amino}carbonyl)-1H-imidazole-1-acetic acid hydrochloride]",–
54,38.9,"CCCCC(C(=O)O)n1cnc(C(=O)Nc2ccccc2O)c1.Cl (stereo not drawn) [Example 89, α-Butyl-4-{[(2-hydroxyphenyl)amino]-carbonyl}-1H-imidazole-1-acetic acid hydrochloride]",–
58,1.66,"CCCCCCC(C(=O)O)c1ccc(Cc2ccccc2C(=O)O)cc1 (stereo not drawn) [Example 94, 4-[(2-Carboxyphenyl)methyl]-α-hexyl-benzeneacetic acid]",–
59,0.372,"CCCCCCC(C(=O)O)n1cnc(NC(=O)c2cccc(N)c2C(=O)O)c1 (stereo not drawn) [Example 96, α-Hexyl-4-[(3-amino-2-carboxybenzoyl)amino]-1H-imidazole-1-aceticacid]",–

SMILES,Adrenal Glomerulosa (% Inhibition of Binding) (angiotensin II receptor) [%],"Kb [1, 2] [µM]",Kb [1] [µM]
"CCCCCCC(C(=O)O)n1cnc(NC(=O)C2(O)c3ccccc3-c3ccccc32)c1 (stereo not drawn) [Example 59, α-Hexyl-4-[(9-hydroxy-9H-fluoren-9-ylcarbonyl)-amino]-1H-imidazole-1-acetic acid]",67,–,3.09
